Data: patent publication US20050222247A1, “Chroman derivatives” (Bayer HealthCare AG, priority 2003, published 2005)
Counter-ions that a name gives are not always drawn.

Key:
[1] = target: T1, human β1-adrenoceptor (Homo sapiens, UniProt P08588); experiment: Antagonistic activity, isoproterenol-induced cAMP production in CHO cells (Assay 3); format: cell-based; settings: antagonist; inhibition of cAMP production induced by 100 nM isoproterenol, CHO cells expressing human β1-adrenoceptor; read-out: Beta-1 IC50
T1 construct: expressed in transfected cells; host or cells: Chinese hamster ovary (CHO) cells
T1 sequence (P08588 whole entry): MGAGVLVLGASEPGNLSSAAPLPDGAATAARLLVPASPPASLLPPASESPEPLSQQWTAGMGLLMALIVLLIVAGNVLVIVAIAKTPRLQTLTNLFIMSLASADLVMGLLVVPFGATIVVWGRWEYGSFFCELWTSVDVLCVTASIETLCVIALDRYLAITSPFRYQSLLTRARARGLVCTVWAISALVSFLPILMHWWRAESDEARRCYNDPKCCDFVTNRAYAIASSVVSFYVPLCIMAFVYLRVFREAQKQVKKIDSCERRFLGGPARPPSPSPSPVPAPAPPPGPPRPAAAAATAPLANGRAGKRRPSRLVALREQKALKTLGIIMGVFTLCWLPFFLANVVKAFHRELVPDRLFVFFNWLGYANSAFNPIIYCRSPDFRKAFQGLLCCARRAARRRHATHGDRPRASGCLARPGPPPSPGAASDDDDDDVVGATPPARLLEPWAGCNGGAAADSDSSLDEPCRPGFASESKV
Method: (§1) Measurement of Antagonistic Activity for Human […] (Assay 3)
(§2) The antagonistic activity of the compound to human β2-adrenoceptor was examined by measurement of cAMP levels in the hβ2-CHO cells stimulated by isoproterenol. The hβ2-CHO cells were suspended in Hank's balanced salt solution containing 20 mM Hepes, 0.1% BSA, 1 mM L-ascorbic acid sodium salt, and 250 nM IBMX (pH 7.4). The cells were stimulated by non-selective β-adrenoceptor agonist isoproterenol at 100 nM to increase cAMP levels. After incubating at 37° C. for 30 min, the compound of the present invention was added and cells were further incubated for 30 min. Total cAMP in the well was measured by cAMP ELISA kit (Tropix, Bedford, Mass.). Inhibitory effect of the compound on the isoproterenol-induced cAMP production was determined at 6 different concentrations from 0.1 nM to 10 μM. The concentration to induce 50% of inhibitory response, 50% inhibitory concentration (IC50), was calculated. Experiments with the same methods were performed in CHO cells expressing recombinant human β1-adrenoceptor to examine the effects of the compounds on human β1-adrenoceptor.

[2] = target: T2, human β2-adrenoceptor (Homo sapiens, UniProt P07550); experiment: as above; format: cell-based; settings: antagonist; inhibition of cAMP production induced by 100 nM isoproterenol, hβ2-CHO cells; read-out: Beta-2 IC50
T2 construct: expressed in transfected cells; host or cells: Chinese hamster ovary (CHO) cells (hβ2-CHO)
T2 sequence (P07550 whole entry): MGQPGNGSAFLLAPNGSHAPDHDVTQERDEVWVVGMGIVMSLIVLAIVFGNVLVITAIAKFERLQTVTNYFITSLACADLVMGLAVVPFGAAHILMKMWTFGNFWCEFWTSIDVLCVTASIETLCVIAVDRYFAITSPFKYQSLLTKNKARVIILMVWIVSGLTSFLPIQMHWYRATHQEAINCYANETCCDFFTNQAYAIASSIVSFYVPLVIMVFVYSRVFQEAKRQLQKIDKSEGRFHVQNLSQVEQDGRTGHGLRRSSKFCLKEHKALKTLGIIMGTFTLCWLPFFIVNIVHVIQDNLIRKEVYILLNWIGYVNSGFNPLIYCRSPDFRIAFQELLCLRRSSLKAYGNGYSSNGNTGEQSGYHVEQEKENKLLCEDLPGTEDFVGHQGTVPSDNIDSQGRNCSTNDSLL
Method: as §1, §2

[3] = target: T1, human β1-adrenoceptor; experiment: Agonistic activity, cAMP levels in CHO cells (Assay 2 - Method A); format: cell-based; settings: agonist, CHO cells expressing recombinant human β1-adrenoceptor, read-out: Beta-1 EC50
Method: (§3) Measurement of Agonistic Activity for Human β1-Adrenoceptor Or Human β2-Adrenoceptor (Assay 2—Method A)
(§4) The agonistic activity of the compound to human […] was examined by measurement of cAMP levels in Chinese hamster ovary (CHO) cells, in which recombinant human […] was expressed (hβ2-CHO cells). The hβ2-CHO cells were suspended in Hank's balanced salt solution containing 20 mM Hepes, 0.1% BSA, 1 mM L-ascorbic acid sodium salt, and 250 nM IBMX (pH 7.4). After incubating at 37° C. for 30 min, the compound of the present invention was added and cells were further incubated for 30 min. Total cAMP in the well was measured by cAMP ELISA kit (Tropix, Bedford, Mass.). The effect of the compound on the cAMP level was determined at 6 different concentrations from 0.1 nM to 10 μM. The concentration to induce 50% of maximum response, 50% effective concentration (EC50), was calculated. In addition, intrinsic activity (IA) was determined as a maximum response induced by each compound, and IA was expressed as relative value compared with a response induced by 10 μM isoproterenol (i.e. cAMP level increased by 10 μM isoproterenol was taken as 100%). Experiments with the same methods were performed in CHO cells expressing recombinant human β1-adrenoceptor to examine the effects of the compounds on human β1-adrenoceptor.

[4] = target: T2, human β2-adrenoceptor; experiment: as above; format: cell-based; settings: agonist, hβ2-CHO cells, read-out: Beta-2 EC50
Method: as §3, §4

[5] = target: T3, β3-adrenoceptor (Homo sapiens, UniProt P13945); experiment: Measurement of cAMP production in SK-N-MC cells (Assay 1 - Method A); format: cell-based; settings: 1 μM CGP20712A, read-out: Beta-3 EC50
T3 construct: which endogenously express β1- and β3-adrenoceptors; endogenous in cells; host or cells: SK-N-MC human neuroblastoma cells
T3 sequence (P13945 whole entry): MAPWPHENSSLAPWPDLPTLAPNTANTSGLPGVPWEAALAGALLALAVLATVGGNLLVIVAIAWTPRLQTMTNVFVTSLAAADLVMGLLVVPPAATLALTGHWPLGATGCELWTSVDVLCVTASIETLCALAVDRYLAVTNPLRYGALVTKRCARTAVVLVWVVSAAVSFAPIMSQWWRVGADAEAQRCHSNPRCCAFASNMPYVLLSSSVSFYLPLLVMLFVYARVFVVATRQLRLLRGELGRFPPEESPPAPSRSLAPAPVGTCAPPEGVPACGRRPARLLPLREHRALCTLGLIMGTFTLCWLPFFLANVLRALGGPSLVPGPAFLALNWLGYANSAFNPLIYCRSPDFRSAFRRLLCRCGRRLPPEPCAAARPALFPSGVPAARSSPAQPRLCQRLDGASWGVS
Method: Measurement of cAMP Production in SK-N-MC Cells (Assay 1—Method A)
Human neuroblastoma cell line, SK-N-MC, which endogenously express β1- and β3-adrenoceptors was utilized. In the presence of 1 μM of […] selective antagonist, CGP20712A, the effects of the compounds on cAMP levels were examined. SK-N-MC cells were suspended in Hank's balanced salt solution containing 20 mM Hepes, 0.1% BSA, 1 mM L-ascorbic acid sodium salt, 250 nM IBMX, and 1 μM CGP20712A (pH 7.4). After incubating at 37° C. for 30 min, the compound of the present invention was added and cells were further incubated for 30 min. Total cAMP in the well was measured by cAMP ELISA kit (Tropix, Bedford, Mass.). Effect of the compound on the cAMP level was determined at 6 different concentrations from 0.1 nM to 10 μM. The concentration to induce 50% of maximum response, 50% effective concentration (EC50), was calculated. In addition, intrinsic activity (IA) was determined as a maximum response induced by each compound, and IA was expressed as relative value compared with a response induced by 10 μM isoproterenol (i.e. cAMP level increased by 10 μM isoproterenol was taken as 100%).

[6] = target: T3, β3-adrenoceptor; experiment: Measurement of cAMP production in SK-N-MC cells (Assay 1 - Method B); format: cell-based; settings: 1 μM Atenolol, read-out: Beta-3 EC50
Method: Measurement of cAMP production in SK-N-MC Cells (Assay 1—Method B)
Human neuroblastoma cell line, SK-N-MC, which endogenously express […] were utilized. In the presence or absence of 1 μM of β1-adrenoceptor selective antagonist, Atenolol, the effects of the compounds on cAMP levels were examined. SK-N-MC cells were suspended in Hank's balanced salt solution containing 20 mM Hepes, 0.1% BSA, 1 mM L-ascorbic acid sodium salt, 250 nM IBMX, and 1 μM Atenolol (pH 7.4). After incubating at 37° C. for 1 h, the compound of the present invention was added and cells were further incubated for 30 min. Total cAMP in the well was measured by cAMP ELISA kit (Tropix, Bedford, Mass.). Effect of the compound on the cAMP level was determined at 8 different concentrations from 1 pM to 10 μM. The concentration to induce 50% of maximum response, 50% effective concentration (EC50), was calculated.

[7] = target: T1, human β1-adrenoceptor; experiment: Agonistic activity, calcium influx in CHO cells (Assay 2 - Method B); format: cell-based; settings: agonist, CHO cells expressing recombinant human β1-adrenoceptor, read-out: Beta-1 EC50
From the text: (§5) Measurement of Agonistic Activity for Human β1-Adrenoceptor or Human β2-Adrenoceptor (Assay 2—Method B)
(§6) The agonistic activity of the compound to human β2-adrenoceptor was examined by measurement of calcium influx in Chinese hamster ovary (CHO) cells, in which recombinant human β2-adrenoceptor was expressed (hβ2-CHO cells). The cells were cultivated in DMEM F12 medium. Prior to measurement, the cells were loaded with Coelenterazine (1:2000) in Ca-Tyrode. The Ca-influx was directly measured for 45 sec (Hamamatsu FluoroBox fluorescence detector). The effect of the compound on calcium influx was determined at 8 different concentrations from 1 pM to 10 μM. The concentration to induce 50% of maximum response, 50% effective concentration (EC50), was calculated. Experiments with the same methods were performed in CHO cells expressing recombinant human β1-adrenoceptor to examine the effects of the compounds on human β1-adrenoceptor.

[8] = target: T2, human β2-adrenoceptor; experiment: as above; format: cell-based; settings: agonist, hβ2-CHO cells, read-out: Beta-2 EC50
From the text: as §5, §6

EC50 [5] [µM]	melting point [°C]	Compound	also measured
0.026	–	O=C(O)c1ccccc1Oc1ccc2c(c1)CC[C@H](CNC[C@H](O)COc1ccccc1)O2 [Example 1, 2-{[(2R)-2-({[(2S)-2-hydroxy-3-phenoxypropyl]amino}methyl)-3,4-dihydro-2H-chromen-6-yl]oxy}benzoic Acid]	IC50 [1]: > 10 µM; IC50 [2]: 0.93 µM; EC50 [3]: > 10 µM; EC50 [4]: > 10 µM
0.014	–	CN(c1ccc(C(=O)O)cc1)c1ccc2c(c1)CC[C@H](CNC[C@H](O)COc1ccccc1)O2 [Example 2, 4-[[(2R)-2-({[(2S)-2-hydroxy-3-phenoxypropyl]amino}methyl)-3,4-dihydro-2H-chromen-6-yl](methyl)amino]benzoic acid hydrochloride]	–
–	–	O=C(O)c1cccc(Nc2ccc3c(c2)CC[C@H](CNC[C@H](O)COc2ccccc2)O3)c1 [Example 11]	EC50 [6]: 0.186 µM
0.27	–	COc1cc(C(=O)O)ccc1Oc1ccc2c(c1)CC[C@H](CNC[C@H](O)COc1ccccc1)O2 [Example 12]	–
–	–	CC(C)(C)c1cc(C(=O)O)ccc1Oc1ccc2c(c1)CC[C@H](CNC[C@H](O)COc1ccccc1)O2 [Example 23]	EC50 [4]: > 10 µM
0.16	–	N#Cc1ccc(Nc2ccc3c(c2)CC[C@H](CNC[C@H](O)COc2ccccc2)O3)cc1 [Example 29]	–
–	209	O=C(O)c1ccccc1Oc1ccc2c(c1)CC[C@H](CNC[C@H](O)COc1ccccc1F)O2 [Example 36]	–
0.23	175	O=C(O)c1ccccc1Oc1ccc2c(c1)CC[C@H](CNC[C@H](O)COc1ccccc1-c1ccccc1)O2 [Example 37]	–
–	162	O=C(O)c1ccccc1Oc1ccc2c(c1)CC[C@H](CNC[C@H](O)COc1ccccc1C(F)(F)F)O2 [Example 38]	–
–	230	O=C(O)c1ccccc1Oc1ccc2c(c1)CC[C@H](CNC[C@H](O)COc1ccccc1Cl)O2 [Example 39]	–
–	138 to 142	O=C(O)c1ccccc1Oc1ccc2c(c1)CC[C@H](CNC[C@H](O)COc1ccc(F)cc1F)O2 [Example 40]	–
–	196 to 198	O=C(O)c1ccccc1Oc1ccc2c(c1)CC[C@H](CNC[C@H](O)COc1c(F)cccc1F)O2 [Example 41]	–
–	173 to 176	O=C(O)c1ccccc1Oc1ccc2c(c1)CC[C@H](CNC[C@H](O)COc1ccccc1N1CCOCC1)O2 [Example 42]	–
–	196 to 199	O=C(O)c1ccccc1Oc1ccc2c(c1)CC[C@H](CNC[C@H](O)COc1ccc(F)c(Cl)c1)O2 [Example 43]	–
–	–	O=C(O)c1cc(F)ccc1Oc1ccc2c(c1)CC[C@H](CNC[C@H](O)COc1ccccc1)O2 [Example 44, 5-fluoro-2-{[(2R)-2-({[(2S)-2-hydroxy-3-phenoxypropyl]amino}methyl)-3,4-dihydro-2H-chromen-6-yl]oxy}benzoic Acid Hydrochloride]	EC50 [6]: 0.023 µM; EC50 [7]: > 10 µM; EC50 [8]: > 10 µM
–	–	COc1cc(Oc2ccc3c(c2)CC[C@H](CNC[C@H](O)COc2ccccc2)O3)c(C(=O)O)cc1OC [Example 54]	EC50 [7]: 8 µM; EC50 [8]: > 10 µM
